Experimental findings from patent US20220000117A1, “METHOD FOR CONTROLLING DISEASES IN SMALL GRAIN CEREALS, SEED OF SMALL GRAIN CEREALS, AND METHOD FOR SUPPRESSING LODGING DAMAGE IN SMALL GRAIN CEREALS” (KUMIAI CHEMICAL INDUSTRY CO., LTD., priority 2019, published 2022) are described below.

In one experiment the test system is septoria leaf blotch. Put plainly: Test Example 10: control test of septoria leaf blotch of wheat, cup in greenhouse, inoculated, variety ARKEOS (Tables 15 to 19). Type of experiment: in vivo, Septoria tritici. The procedure:
(§1) Degree of Disease Occurrence=Σ(Index×Number of Leaves of Index)/(4×Number of Investigated Leaves)×100 (1)
Seed of wheat (variety: ARKEOS) was used, and 100 ml of suspension waters each containing the compound shown in Table 15 at an amount shown in Table 15 (synthesis was performed in accordance with a known method, a liquid dissolved in a small amount of DMSO or formulated 10% wettable powder was used) were prepared. Seed having a mass of 1 kg was mixed into the suspension water with a rate shown in Examples of Table 15, and air-dried, and then, 5 seeds were sown in a plastic cup having a diameter of 6 cm containing mixed soil of river sand and horticultural soil and managed in a greenhouse. In Comparative Examples, 20 ml of suspension water of an active ingredient, which had been adjusted to have a concentration shown in Table 15 to 19, was sprayed in a frame of 45 cm×45 cm in which a pot of wheat seedlings was placed (corresponding to 1000 L/ha) 14 days after seeding. On day 14 after seeding, a spore suspension in which conidiospores of septoria leaf blotch are suspended was sprayed and inoculated on leaves of wheat seedlings (after the sprayed liquid was dried in the case of Comparative Examples), a lesion area ratio of septoria leaf blotch in a second leaf was investigated approximately 35 days after seeding according to the criteria in Table 1, and the degree of disease occurrence was calculated by the above calculation formula (1).

Another experiment relates to powdery mildew. Description: Test Example 9: control test of wheat powdery mildew, cup in greenhouse, inoculated, Norin No. 61 (Tables 10 to 14). It counts as in vivo, Blumeria graminis. On the set-up: key to Degree of Disease Occurrence: Σ(index×leaves)/(4×leaves investigated)×100; 0 = no disease, 100 = max. The procedure: as §1
Seed of wheat (variety: Norin No. 61) was used, and 100 ml of suspension waters each containing the compound shown in Table 10 at an amount shown in […] (synthesis was performed in accordance with a known method, a solution dissolved in DMSO or formulated 10% wettable powder was used) were prepared. The seed having a mass of 1 kg of wheat was mixed into the suspension water with a chemical treated amount shown in Table 10, and air-dried, and then, 5 seeds were sown in a plastic cup having a diameter of 6 cm containing river sand and managed in a greenhouse. In Comparative Examples, 20 ml of the suspension water of an active ingredient, which had been adjusted to have a concentration shown in Table 10, was sprayed in a frame of 45 cm×45 cm in which a pot of wheat seedlings was placed (corresponding to 1000 L/ha) 14 days after seeding. On day 14 after seeding, conidiospores of powdery mildew were sifted over leaves of wheat seedlings and inoculated onto the leaves (after the sprayed liquid was dried in the case of Comparative Examples), a lesion area ratio of powdery mildew in a first leaf was investigated 21 days after seeding according to the criteria in Table 1, and the degree of disease occurrence was calculated by the above calculation formula (1).

Setting [1] is: Table 11 run (different day), Foliage Treatment, spray 50 ppm (50 g/ha).
Where [2] appears, read: Table 11 run (different day), Seed Treatment 0.5 g/Seed 1 kg (50 g/ha).
Setting [3] is: Table 13 run (different day), Foliage Treatment, spray 10 ppm (10 g/ha).
The mark [4] stands for this setting: Table 13 run (different day), Foliage Treatment, spray 50 ppm (50 g/ha).
[5] abbreviates: Table 13 run (different day), Seed Treatment 0.1 g/Seed 1 kg (10 g/ha).
The mark [6] stands for this setting: Table 13 run (different day), Seed Treatment 0.5 g/Seed 1 kg (50 g/ha).
Setting [7] is: Table 14, Foliage Treatment, spray 10 ppm suspension water (corresponding to 10 g/ha) 14 days after seeding, untreated 70.0.
[8] abbreviates: Table 14, Foliage Treatment, spray 10 ppm suspension water (corresponding to 10 g/ha) 14 days after seeding, untreated 100.0.
Where [9] appears, read: Table 14, Foliage Treatment, spray 100 ppm suspension water (corresponding to 100 g/ha) 14 days after seeding, untreated 70.0.
[10] abbreviates: Table 14, Foliage Treatment, spray 100 ppm suspension water (corresponding to 100 g/ha) 14 days after seeding, untreated 100.0.
The mark [11] stands for this setting: Table 14, Seed Treatment, 0.1 g/Seed 1 kg (corresponding to 10 g/ha), first leaf, 21 days after seeding, untreated 70.0.
The mark [12] stands for this setting: Table 14, Seed Treatment, 0.1 g/Seed 1 kg (corresponding to 10 g/ha), first leaf, 21 days after seeding, untreated 100.0.
The mark [13] stands for this setting: Table 14, Seed Treatment, 1 g/Seed 1 kg (corresponding to 100 g/ha), first leaf, 21 days after seeding, untreated 70.0.
The mark [14] stands for this setting: Table 14, Seed Treatment, 1 g/Seed 1 kg (corresponding to 100 g/ha), first leaf, 21 days after seeding, untreated 100.0.
Where [15] appears, read: Table 18, Foliage Treatment, spray 5 ppm (5 g/ha).
The mark [16] stands for this setting: Table 18, Foliage Treatment, spray 10 ppm (10 g/ha).
Where [17] appears, read: Table 18, Seed Treatment 0.05 g/Seed 1 kg (5 g/ha).
Where [18] appears, read: Table 18, Seed Treatment 0.1 g/Seed 1 kg (10 g/ha).
Setting [19] is: Table 12 run (different day), Foliage Treatment, spray 5 ppm (5 g/ha).
[20] abbreviates: Table 12 run (different day), Foliage Treatment, spray 10 ppm (10 g/ha).
[21] abbreviates: Table 12 run (different day), Foliage Treatment, spray 50 ppm (50 g/ha).
Setting [22] is: Table 12 run (different day), Seed Treatment 0.05 g/Seed 1 kg (5 g/ha).
Setting [23] is: Table 12 run (different day), Seed Treatment 0.1 g/Seed 1 kg (10 g/ha).
Where [24] appears, read: Table 12 run (different day), Seed Treatment 0.5 g/Seed 1 kg (50 g/ha).
The mark [25] stands for this setting: Table 14, Foliage Treatment, spray 50 ppm suspension water (corresponding to 50 g/ha) 14 days after seeding, untreated 70.0.
[26] abbreviates: Table 14, Foliage Treatment, spray 50 ppm suspension water (corresponding to 50 g/ha) 14 days after seeding, untreated 100.0.
Setting [27] is: Table 14, Seed Treatment, 0.5 g/Seed 1 kg (corresponding to 50 g/ha), first leaf, 21 days after seeding, untreated 70.0.
Where [28] appears, read: Table 14, Seed Treatment, 0.5 g/Seed 1 kg (corresponding to 50 g/ha), first leaf, 21 days after seeding, untreated 100.0.
[29] abbreviates: Table 18, Foliage Treatment, spray 50 ppm (50 g/ha).
The mark [30] stands for this setting: Table 18, Seed Treatment 0.5 g/Seed 1 kg (50 g/ha).

With `COC(=N)c1snc(Cl)c1Cl` [Compound (11)], the “Degree of Disease Occurrence” value stood at 31.7 in the experiment on septoria leaf blotch (Table 17, Foliage Treatment, spray 10 ppm suspension water (corresponding to 10 g/ha) 14 days after seeding, untreated 50.0); 35.0 in the experiment on septoria leaf blotch (Table 17, Foliage Treatment, spray 50 ppm suspension water (corresponding to 50 g/ha) 14 days after seeding, untreated 50.0); 41.7 in the experiment on septoria leaf blotch (Table 17, Foliage Treatment, spray 100 ppm suspension water (corresponding to 100 g/ha) 14 days after seeding, untreated 50.0); 22.5 in the experiment on septoria leaf blotch (Table 17, Seed Treatment, 0.1 g/Seed 1 kg (corresponding to 10 g/ha), untreated 50.0); 18.8 in the experiment on septoria leaf blotch (Table 17, Seed Treatment, 0.5 g/Seed 1 kg (corresponding to 50 g/ha), untreated 50.0); 26.5 in the experiment with septoria leaf blotch (Table 17, Seed Treatment, 1 g/Seed 1 kg (corresponding to 100 g/ha), untreated 50.0). For the same compound, the “Degree of Disease Occurrence” value in the experiment on powdery mildew (setting [1]) turned out to be 97.9; with powdery mildew (setting [2]), 79.7; in the experiment with powdery mildew (setting [3]) it was 72.6; with powdery mildew (setting [4]), 67.6; in the experiment on powdery mildew (setting [5]), 50.1; in the experiment with powdery mildew (setting [6]), 40.8. Moreover, the “Disease Leaf Rate (%)” value with septoria leaf blotch (Table 17, Foliage Treatment, spray 10 ppm suspension water (corresponding to 10 g/ha) 14 days after seeding, untreated 100.0) is 93.3%; in the experiment with septoria leaf blotch (Table 17, Foliage Treatment, spray 50 ppm suspension water (corresponding to 50 g/ha) 14 days after seeding, untreated 100.0), 100.0%; in the experiment with septoria leaf blotch (Table 17, Foliage Treatment, spray 100 ppm suspension water (corresponding to 100 g/ha) 14 days after seeding, untreated 100.0), 100.0%; with septoria leaf blotch (Table 17, Seed Treatment, 0.1 g/Seed 1 kg (corresponding to 10 g/ha), untreated 100.0), 80.0%; with septoria leaf blotch (Table 17, Seed Treatment, 0.5 g/Seed 1 kg (corresponding to 50 g/ha), untreated 100.0), 63.8%; with septoria leaf blotch (Table 17, Seed Treatment, 1 g/Seed 1 kg (corresponding to 100 g/ha), untreated 100.0), 67.5%. For the same compound, the “Disease Leaf Rate (%)” value in the experiment on powdery mildew (setting [1]) is listed as 100%; with powdery mildew (setting [2]) it was 100%; with powdery mildew (setting [3]) it was 98.4%; with powdery mildew (setting [4]), 99.6%; in the experiment with powdery mildew (setting [5]), 95.0%; in the experiment with powdery mildew (setting [6]) it was 100.0%.
For the compound `N=C(OCc1ccccc1)c1snc(Cl)c1Cl` [Compound (12)], the “Degree of Disease Occurrence” value in the experiment with septoria leaf blotch (Table 19, Foliage Treatment, spray 10 ppm suspension water (corresponding to 10 g/ha) 14 days after seeding, untreated 45.0) came out at 53.3; in the experiment with septoria leaf blotch (Table 19, Foliage Treatment, spray 50 ppm suspension water (corresponding to 50 g/ha) 14 days after seeding, untreated 45.0) it was 39.2; in the experiment on septoria leaf blotch (Table 19, Seed Treatment, 0.1 g/Seed 1 kg (corresponding to 10 g/ha), untreated 45.0), 26.3; with septoria leaf blotch (Table 19, Seed Treatment, 0.5 g/Seed 1 kg (corresponding to 50 g/ha), untreated 45.0) it was 10.3; in the experiment with powdery mildew (setting [7]) it was 56.9; in the experiment on powdery mildew (setting [9]) it was 47.9. Also, the “Degree of Disease Occurrence” value is reported as 21.3 with powdery mildew (setting [11]) and 34.1 in the experiment with powdery mildew (setting [13]). Besides, the “Disease Leaf Rate (%)” value amounted to 99.3% in the experiment on septoria leaf blotch (Table 19, Foliage Treatment, spray 10 ppm suspension water (corresponding to 10 g/ha) 14 days after seeding, untreated 98.0); 93.6% in the experiment on septoria leaf blotch (Table 19, Foliage Treatment, spray 50 ppm suspension water (corresponding to 50 g/ha) 14 days after seeding, untreated 98.0); 75.0% in the experiment on septoria leaf blotch (Table 19, Seed Treatment, 0.1 g/Seed 1 kg (corresponding to 10 g/ha), untreated 98.0); 41.3% with septoria leaf blotch (Table 19, Seed Treatment, 0.5 g/Seed 1 kg (corresponding to 50 g/ha), untreated 98.0); 94.4% in the experiment on powdery mildew (setting [8]); 93.3% in the experiment on powdery mildew (setting [10]). The “Disease Leaf Rate (%)” value is recorded as 75.8% in the experiment on powdery mildew (setting [12]) and 87.5% with powdery mildew (setting [14]).
In the case of `N=C(N)c1snc(Cl)c1Cl` [Compound (13)], the “Degree of Disease Occurrence” value is recorded as 60.0 in the experiment with septoria leaf blotch (setting [15]); 68.3 in the experiment with septoria leaf blotch (setting [16]); 28.8 in the experiment on septoria leaf blotch (setting [17]); 42.5 with septoria leaf blotch (setting [18]); 60.0 in the experiment with powdery mildew (setting [19]); 36.7 in the experiment on powdery mildew (setting [20]). Further, the “Degree of Disease Occurrence” value is 21.7 in the experiment with powdery mildew (setting [21]); 19.4 with powdery mildew (setting [22]); 7.5 in the experiment with powdery mildew (setting [23]); 9.7 with powdery mildew (setting [24]); 35.6 with powdery mildew (setting [7]); 31.3 in the experiment on powdery mildew (setting [25]). Moreover, the results for the “Degree of Disease Occurrence” value in the experiment with powdery mildew (setting [11]) and in the experiment with powdery mildew (setting [27]) were 17.2 and 13.9, respectively. The “Disease Leaf Rate (%)” value worked out at 100.0% in the experiment with septoria leaf blotch (setting [15]); 100.0% in the experiment on septoria leaf blotch (setting [16]); 95.0% with septoria leaf blotch (setting [17]); 100.0% with septoria leaf blotch (setting [18]); 100.0% in the experiment on powdery mildew (setting [19]); 53.3% with powdery mildew (setting [20]). Also, the “Disease Leaf Rate (%)” value was found to be 53.3% with powdery mildew (setting [21]); 53.3% in the experiment with powdery mildew (setting [22]); 20.0% in the experiment with powdery mildew (setting [23]); 38.9% with powdery mildew (setting [24]); 76.7% in the experiment on powdery mildew (setting [8]); 83.3% in the experiment on powdery mildew (setting [26]). The figures for the “Disease Leaf Rate (%)” value in the experiment with powdery mildew (setting [12]) and in the experiment with powdery mildew (setting [28]) were 68.8% and 44.4%, respectively.
Turning to `N=C(N)c1snc(Cl)c1Cl` [Compound (14)], the “Degree of Disease Occurrence” value in the experiment with septoria leaf blotch (setting [29]) is on record as 48.3; with septoria leaf blotch (setting [30]) it was 42.5; in the experiment on powdery mildew (setting [25]), 18.3; with powdery mildew (setting [9]), 14.4; in the experiment on powdery mildew (setting [27]), 7.8; in the experiment on powdery mildew (setting [13]), 11.3. The “Disease Leaf Rate (%)” value is on record as 100.0% in the experiment with septoria leaf blotch (setting [29]); 90.0% in the experiment on septoria leaf blotch (setting [30]); 61.1% in the experiment on powdery mildew (setting [26]); 44.4% in the experiment on powdery mildew (setting [10]); 25.0% with powdery mildew (setting [28]); 40.0% in the experiment with powdery mildew (setting [14]).
